Laboratory results reported in ChEMBL document CHEMBL1201862, “PubChem BioAssay data set” (2004).
“And” between values parts separate entries of the source, which are not always exact repeats. Equal values may be shown once.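 Exposure lasted 48 hours, with cells grown in 96-well plates and compounds tested at five concentrations. Abbreviation: GI50, concentration required for 50% inhibition of growth.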 The source made the active and inactive calls. Cut-off read from the data, not from the text of the source: active = GI50 up to about 1.1 µM and inactive = higher.

Columns and labels:
Assay in all cases: DTP human tumour cell line panel, 48 h
[1] = tested on: SK-MEL-5
[2] = tested on: RXF 393
[3] = tested on: SR
[4] = tested on: UACC-62
[5] = tested on: HOP-62
[6] = tested on: SW-620
[7] = tested on: KM12
[8] = tested on: SNB-75
[9] = tested on: Malme-3M
[10] = tested on: U-251
[11] = tested on: BT-549
[12] = tested on: CCRF-CEM
[13] = tested on: NCI-H226
[14] = tested on: OVCAR-5
[15] = tested on: NCI-H23
[16] = tested on: MDA-MB-435
[17] = tested on: NCI-H460
[18] = tested on: ACHN
[19] = tested on: CAKI-1
[20] = tested on: OVCAR-3

Compound	GI50 [1]	GI50 [2]	GI50 [3]	GI50 [4]	GI50 [5]	GI50 [6]	GI50 [7]	GI50 [8]	GI50 [9]	GI50 [10]	GI50 [11]	GI50 [12]	GI50 [13]	GI50 [14]	GI50 [15]	GI50 [16]	GI50 [17]	GI50 [18]	GI50 [19]	GI50 [20]
[O-][n+]1ccccc1Sc1nc(Sc2cccc[n+]2[O-])nc(Sc2cccc[n+]2[O-])n1	1.31 µM (inactive)	0.444 µM (active)	0.171 µM (active)	1.22 µM (inactive)	2.98 µM (inactive)	0.248 µM (active)	1.88 µM (inactive)	4.2 µM (inactive)	1.95 µM (inactive)	1.69 µM (inactive)	1.61 µM (inactive)	0.198 µM (active)	2.42 µM (inactive)	1.7 µM (inactive)	1.36 µM (inactive)	1.07 µM (active)	1.88 µM (inactive)	1.54 µM (inactive)	0.9 µM (active)	1.58 µM (inactive)
Cc1cccc(C2ON=C(c3ccccc3)N2C23CC4CC(CC(C4)C2)C3)c1 (stereo unspecified)	> 10 µM (inactive)	> 10 µM (inactive)	> 10 µM (inactive)	> 10 µM (inactive)	> 10 µM (inactive)	> 10 µM (inactive)	> 10 µM (inactive)	7.28 µM (inactive)	> 10 µM (inactive)	> 10 µM (inactive)	> 10 µM (inactive)	> 10 µM (inactive)	> 10 µM (inactive)	> 10 µM (inactive)	> 10 µM (inactive)	> 10 µM (inactive)	> 10 µM (inactive)	> 10 µM (inactive)	> 10 µM (inactive)	> 10 µM (inactive)
COc1ccc(/C=C2\CCC(C)C3=C2NC(=S)NC3c2ccc(OC)c(OC)c2)cc1OC (stereo unspecified)	12.5 µM (inactive)	> 10 µM (inactive)	2.65 µM (inactive)	20.2 µM (inactive)	> 100 µM (inactive)	26.1 µM (inactive)	12 µM (inactive)	> 100 µM (inactive)	> 10 µM (inactive)	24.6 µM (inactive)	13.3 µM (inactive)	8.95 µM (inactive)	> 78 µM (inactive)	> 31.6 µM (inactive)	> 10 µM (inactive)	6.3 µM (inactive)	41.8 µM (inactive)	24.3 µM (inactive)	15.6 µM (inactive)	24.4 µM (inactive)
CC(C)COP(=O)(OCC(C)C)C(NS(=O)(=O)c1ccccc1)(C(F)(F)F)C(F)(F)F	5.12 µM (inactive)	3.96 µM (inactive)	2.08 µM (inactive)	4.81 µM (inactive)	11.3 µM (inactive)	4.15 µM (inactive)	3.93 µM (inactive)	2.91 µM (inactive)	11.9 µM (inactive)	3.77 µM (inactive)	4.03 µM (inactive)	3.36 µM (inactive)	16.9 µM (inactive)	14.2 µM (inactive)	3.81 µM (inactive)	4.45 µM (inactive)	–	2.99 µM (inactive)	5.52 µM (inactive)	4.82 µM (inactive)
O=C1C(N2CCCC2)=CC(=O)c2c(O)c(N3CCCC3)c(Cl)c(O)c21	> 10 µM (inactive)	> 10 µM (inactive)	> 10 µM (inactive)	> 10 µM (inactive)	> 10 µM (inactive)	> 10 µM (inactive)	> 10 µM (inactive)	> 10 µM (inactive)	> 10 µM (inactive)	> 10 µM (inactive)	> 10 µM (inactive)	> 10 µM (inactive)	> 10 µM (inactive)	–	> 10 µM (inactive)	> 10 µM (inactive)	> 10 µM (inactive)	> 10 µM (inactive)	> 10 µM (inactive)	> 10 µM (inactive)
NC1=NN(c2ccccc2)C2(O)c3ccncc3C3=NN(c4ccccc4)C(=O)C132 (stereo unspecified)	> 100 µM (inactive)	> 100 µM (inactive)	> 100 µM (inactive)	> 100 µM (inactive)	–	> 100 µM (inactive)	> 100 µM (inactive)	> 100 µM (inactive)	63.1 µM (inactive)	> 100 µM (inactive)	> 100 µM (inactive)	> 10 µM (inactive)	> 100 µM (inactive)	> 100 µM (inactive)	> 100 µM (inactive)	> 100 µM (inactive)	> 100 µM (inactive)	> 100 µM (inactive)	> 100 µM (inactive)	> 100 µM (inactive)
CC(=O)OCC1OC(SC2=NC(=O)CS2)C(OC(C)=O)C(OC(C)=O)C1OC(C)=O (stereo unspecified)	> 100 µM (inactive)	> 100 µM (inactive)	39.6 µM (inactive) and 67.5 µM (inactive)	> 100 µM (inactive) and 76.6 µM (inactive)	> 100 µM (inactive)	> 100 µM (inactive)	> 100 µM (inactive)	> 100 µM (inactive)	> 100 µM (inactive)	–	93.5 µM (inactive) and 62.7 µM (inactive)	31.5 µM (inactive) and 32.3 µM (inactive)	> 100 µM (inactive)	> 100 µM (inactive)	> 100 µM (inactive)	> 100 µM (inactive)	> 100 µM (inactive)	> 100 µM (inactive)	68.7 µM (inactive)	> 100 µM (inactive)
CCOP(=O)(OCC)/C(C#N)=C/c1c[nH]c2ccccc12	> 100 µM (inactive)	> 100 µM (inactive)	> 100 µM (inactive)	> 100 µM (inactive)	> 100 µM (inactive)	> 100 µM (inactive)	> 100 µM (inactive)	> 100 µM (inactive)	> 100 µM (inactive)	> 100 µM (inactive)	57.9 µM (inactive)	–	> 100 µM (inactive)	> 100 µM (inactive)	> 100 µM (inactive)	> 100 µM (inactive)	> 100 µM (inactive)	> 100 µM (inactive)	> 100 µM (inactive)	62.8 µM (inactive)
COC(CNC(=O)C(C)NC(=O)/C=C/c1ccccc1)OC (stereo unspecified)	> 100 µM (inactive)	> 100 µM (inactive)	> 100 µM (inactive)	> 100 µM (inactive)	–	> 100 µM (inactive)	> 100 µM (inactive)	> 100 µM (inactive)	> 100 µM (inactive)	> 100 µM (inactive)	> 100 µM (inactive)	> 100 µM (inactive)	> 100 µM (inactive)	> 100 µM (inactive)	> 100 µM (inactive)	> 100 µM (inactive)	> 100 µM (inactive)	> 100 µM (inactive)	> 100 µM (inactive)	–
COc1cc(OCc2nc3cc(C(F)(F)F)ccc3nc2-c2ccccc2)cc(OC)c1OC	17.1 µM (inactive)	19.5 µM (inactive)	81.5 µM (inactive)	61.4 µM (inactive)	–	> 100 µM (inactive)	> 100 µM (inactive)	98.9 µM (inactive)	> 100 µM (inactive)	39.6 µM (inactive)	> 100 µM (inactive)	> 100 µM (inactive)	> 100 µM (inactive)	> 100 µM (inactive)	87.3 µM (inactive)	> 100 µM (inactive)	> 100 µM (inactive)	> 100 µM (inactive)	> 100 µM (inactive)	> 100 µM (inactive)
COC(=O)C1=CS/C(=C2\S[C@@H]3[C@H](S2)[C@H]2C=C[C@@H]3C2)S1	17.9 µM (inactive)	29.6 µM (inactive)	3.4 µM (inactive)	12.5 µM (inactive)	> 100 µM (inactive)	13.1 µM (inactive)	> 100 µM (inactive)	46.1 µM (inactive)	> 100 µM (inactive)	8.49 µM (inactive)	> 100 µM (inactive)	17.6 µM (inactive)	87.7 µM (inactive)	–	> 100 µM (inactive)	2.06 µM (inactive)	34.9 µM (inactive)	–	7.14 µM (inactive)	33.2 µM (inactive)
Cc1ccc(/N=N/C(=N/NC(=O)c2cc(Cl)ccc2O)c2ccc(N(CCC#N)CCC#N)cc2C)cc1	16.8 µM (inactive)	18.2 µM (inactive)	51.2 µM (inactive)	22.7 µM (inactive)	32.8 µM (inactive)	–	18.1 µM (inactive)	26.7 µM (inactive)	20.6 µM (inactive)	18.2 µM (inactive)	27.5 µM (inactive)	26 µM (inactive)	17.1 µM (inactive)	41.5 µM (inactive)	18.6 µM (inactive)	34 µM (inactive)	21.8 µM (inactive)	24.4 µM (inactive)	41.4 µM (inactive)	11.1 µM (inactive)
Nc1ccc(-c2nc3ccccc3s2)cc1F	20 µM (inactive)	27.2 µM (inactive)	23.6 µM (inactive)	20.7 µM (inactive)	30.7 µM (inactive)	42.3 µM (inactive)	28.5 µM (inactive)	21.5 µM (inactive)	42 µM (inactive)	15.4 µM (inactive)	68.4 µM (inactive)	5.47 µM (inactive)	< 0.01 µM (active)	–	52.1 µM (inactive)	31.6 µM (inactive)	–	22 µM (inactive)	19.5 µM (inactive)	18.5 µM (inactive)
COc1ccc2nc(-c3cccc(N(C)C)c3)cc(O)c2c1	0.211 µM (active)	0.173 µM (active)	0.142 µM (active)	0.252 µM (active)	–	0.264 µM (active)	0.337 µM (active)	0.299 µM (active)	0.177 µM (active)	0.247 µM (active)	1.15 µM (inactive)	0.255 µM (active)	0.266 µM (active)	0.541 µM (active)	0.111 µM (active)	0.0726 µM (active)	0.348 µM (active)	0.618 µM (active)	0.327 µM (active)	0.169 µM (active)
